Laboratory results published in article PMC8667045, “Into Deep Water: Optimizing BCL6 Inhibitors by Growing into a Solvated Pocket” (Journal of Medicinal Chemistry, 2021).
Converted amounts (≈) assume the structure as drawn. “And” between values parts separate entries of the source, which are not always exact repeats. Identical values can stand only once. Like-named read-outs stand apart in the source and are kept apart here.

Legend:
NMR solubility assay = assay type: physicochemical; conditions: HEPES buffer, 5% DMSO, room temperature
Protocol: 3. Supplementary experimental: physicochemical assays
The plate was then sealed and incubated at room temperature for 20 hours, without shaking. The plate was centrifuged again for 1 minute at […]
spectrometer equipped with a 5 mm TCI-CryoProbe. […]
deuterated solvent. […] All NMR data were acquired at the […]
contained 16k time-domain data points. Relaxation delay was set to 20 sec. […]

BCL6 BTB domain [1] = molecular target: T1, BCL6 BTB domain (Homo sapiens, UniProt P41182); experiment: biochemical; conditions: for BCL6 TR-FRET pIC50 mean: mean of n replicates
Protocol: Supplementary experimental: protein production, purification and crystallography
3C protease cleavage site.
used without cleaving the tag, as a 6His was needed to bind to the anti-6His-Terbium antibody. For
For both plasmid constructs described above, transformed BL21-AI E. coli cells were grown in LB
carried out at 18 °C for 18 hours. Cells were harvested by centrifugation (5500 g for 30 minutes at 4
oC) and stored at -80 °C.
Cells were re-suspended in a buffer composed of 20 mM Tris pH 8, 250 mM NaCl, 1 mM MgCl2, 0.5
Cells were lysed by sonication followed by centrifugation at 21,000 g for 45 minutes at 4 °C. […]
The final protein was assessed for purity
and molar mass by SDS-PAGE and high-resolution mass spectrometry, respectively.
(§1) directly eluted from the HisTrap FF column without HRV-3C treatment, and submitted to Superdex75
gel filtration as described above. […]
2. Supplementary experimental: biological assay conditions
IC50 values were determined using
a sigmoidal four-parameter logistic fit equation.

[2] = PAMPA passive permeability pH 7.4; conditions: for PAMPA7.4: pH 7.4, passive permeability Pe
BCL6 BTB domain [3] = molecular target: T1, BCL6 BTB domain; experiment: Rapid X-ray screen: ligand density in extended pocket of BCL6 BTB domain; parameters: made in house; host or cells: E. coli BL21-AI; conditions: crystals soaked with compound
Description: Furthermore, we speculated that these represent better starting points since the substituent can be modified further to derive additional interactions and more completely fill the extended pocket. […] Instead, we just checked for the presence of ligand density and, in particular, for electron density in the extended pocket.
as §1
gel filtration as described above.
NH2. A stock solution of WVIP peptide at 100 mM in 100 % DMSO was added to a 2 mg/mL solution
This mixture was then concentrated to a final
protein concentration of 4 mg/mL using a centrifugal concentrator with a 3 kDa molecular weight
complex plus 1 μL of a crystallisation solution consisting of 1 M K 2HPO4, 0.7 M NaH2PO4, 75 mM
drops, followed by 10-120 minutes incubation. Crystals were then cryo-protected in a solution
composed of the crystallisation reagent supplemented with 30 % ethylene glycol and cryo-cooled in
concentrated to a final protein concentration of 10 mg/mL using a centrifugal concentrator with a 3
kDa molecular weight cut-off. Crystals were grown at 18 °C in hanging drops composed of 1.5 μL of
and 0.80 M Na/K Tartrate, against 300 μL of crystallisation solution.
and compounds were soaked as described above for the other construct. Crystals were then cryo-
protected in a solution composed of the crystallisation reagent supplemented with 30 % ethylene
glycol and cryo-cooled in liquid nitrogen.
1.5 Crystallographic data collection, processing and refinement
X-ray data were collected at Diamond Light Source, Harwell campus, Oxfordshire, UK, on beamlines
Research, London, UK, on a Rigaku FRX-AFC11-VariMax Cu-VHF-Pilatus300K. Crystals obtained with […]

[4] = TR-FRET IC50 individual replicates, single replicates, italic values used 10nM BCL6, otherwise 1nM BCL6
[5] = read-out: BCL6 TR-FRET Geo Mean IC50, geometric mean of n replicates, supplement
[6] = read-out: TR-FRET IC50, tables and figures
[7] = read-out: TR-FRET IC50 individual replicates, single replicates, italic values used 10nM BCL6, otherwise 1nM BCL6

Structure (SMILES)	solubility at 20 h (NMR solubility assay)	IC50 (BCL6 BTB domain [1]; [4])	BCL6 TR-FRET pIC50 mean (BCL6 BTB domain [1])	IC50 (BCL6 BTB domain [1]; [5])	IC50 (BCL6 BTB domain [1]; [6])	IC50 (BCL6 BTB domain [1]; [7])	PAMPA7.4 [2]	Ligand density in extended pocket (BCL6 BTB domain [3])	Papp ([2]; PAMPA, pH 7.4)
Cc1nnc(C(C)Nc2cc(=O)n(C)c3ccc(Nc4ccnc(Cl)c4C#N)cc23)o1 (centres unmarked) [Compound 13c, 2-Chloro-4-((1-methyl-4-((1-(5-methyl-1,3,4-oxadiazol-2-yl)ethyl)amino)-2-oxo-1,2-dihydroquinolin-6-yl)amino)nicotinonitrile]	247 µM (≈ 108 µg/mL)	1070 nM and 680 nM	6.06 and 6.059	872 nM	870 nM	690 nM and 1180 nM and 840 nM	<0.2 x10^-6 cms^-1	–	–
CC(Nc1cc(=O)n(CC2CCC2)c2ccc(Nc3ccnc(Cl)c3C#N)cc12)c1ncccn1 (centres unmarked) [Compound 17b, 2-Chloro-4-((1-(cyclobutylmethyl)-2-oxo-4-((1-(pyrimidin-2-yl)ethyl)amino)-1,2-dihydroquinolin-6-yl)amino)nicotinonitrile]	32 µM (≈ 15.6 µg/mL)	250 nM and 210 nM and 640 nM	6.49 and 6.489	324 nM	320 nM	–	21 x10^-6 cms^-1	–	–
Cc1cnc(C(C)Nc2cc(=O)n(C)c3ccc(Nc4ccnc(Cl)c4C#N)cc23)nc1 (centres unmarked) [Compound 24a, 2-Chloro-4-((1-methyl-4-((1-(5-methylpyrimidin-2-yl)ethyl)amino)-2-oxo-1,2-dihydroquinolin-6-yl)amino)nicotinonitrile]	31 µM (≈ 13.8 µg/mL)	60 nM and 90 nM	7.14 and 7.136	70 nM and 73.1 nM	73 nM	70 nM	5.6 x10^-6 cms^-1	–	–
C[C@@H](Nc1cc(=O)n(C)c2ccc(Nc3ccnc(Cl)c3C#N)cc12)c1ncccn1 [Compound 13f, (R)-2-Chloro-4-((1-methyl-2-oxo-4-((1-(pyrimidin-2-yl)ethyl)amino)-1,2-dihydroquinolin-6-yl)amino)nicotinonitrile]	126 µM (≈ 54.4 µg/mL)	–	–	–	–	–	0.8 x10^-6 cms^-1	–	–
Cn1cc(-c2cc(=O)[nH]c3ccc(Nc4ccnc(Cl)c4C#N)cc23)cn1 [Compound 8e, 2-Chloro-4-((4-(1-methyl-1H-pyrazol-4-yl)-2-oxo-1,2-dihydroquinolin-6-yl)amino)nicotinonitrile]	–	1520 nM and 2190 nM	5.74 and 5.739	1820 nM	1820 nM	–	–	Yes	–
CN(C)c1cc(=O)[nH]c2ccc(Nc3ccnc(Cl)c3C#N)cc12 [Compound 8a, 2-Chloro-4-((4-(dimethylamino)-2-oxo-1,2-dihydroquinolin-6-yl)amino)nicotinonitrile]	–	7010 nM and 4460 nM	5.25 and 5.254	5570 nM	5570 nM	5520 nM	–	No	–
CC(Nc1cc(=O)n(CC2CC2)c2ccc(Nc3ccnc(Cl)c3C#N)cc12)c1ncccn1 (centres unmarked) [Compound 17a, 2-Chloro-4-((1-(cyclopropylmethyl)-2-oxo-4-((1-(pyrimidin-2-yl)ethyl)amino)-1,2-dihydroquinolin-6-yl)amino)nicotinonitrile]	72 µM (≈ 34 µg/mL)	230 nM and 790 nM	6.38 and 6.379	418 nM	420 nM	410 nM	8.5 x10^-6 cms^-1	–	–
Cn1c(=O)cc(NCC2CC2)c2cc(Nc3cc(C(=O)O)nc(Cl)c3C#N)ccc21 [Compound 11d, 6-Chloro-5-cyano-4-((4-((cyclopropylmethyl)amino)-1-methyl-2-oxo-1,2-dihydroquinolin-6-yl)amino)picolinic Acid]	324 µM (≈ 137 µg/mL)	270 nM and 420 nM	6.46 and 6.461	350 nM and 346 nM	350 nM	360 nM and 350 nM	–	–	–
CC(Nc1cc(=O)n(C)c2ccc(Nc3ccnc(Cl)c3C#N)cc12)c1ncc(C2CC2)cn1 (centres unmarked) [Compound 24b, 2-Chloro-4-((4-((1-(5-cyclopropylpyrimidin-2-yl)ethyl)amino)-1-methyl-2-oxo-1,2-dihydroquinolin-6-yl)amino)nicotinonitrile]	32 µM (≈ 15.1 µg/mL)	–	–	–	–	–	14 x10^-6 cms^-1	–	–
CCNc1cc(=O)[nH]c2ccc(Nc3ccnc(Cl)c3C#N)cc12 [Compound 8f, 2-Chloro-4-((4-(ethylamino)-2-oxo-1,2-dihydroquinolin-6-yl)amino)nicotinonitrile]	–	1660 nM and 680 nM and 1950 nM and 1130 nM and 1050 nM and 1910 nM	5.883	1310 nM	1310 nM	–	–	Yes	–
CCNc1cc(=O)n(C)c2ccc(Nc3cc(C(=O)O)nc(Cl)c3C#N)cc12 [Compound 11a, 6-Chloro-5-cyano-4-((4-(ethylamino)-1-methyl-2-oxo-1,2-dihydroquinolin-6-yl)amino)picolinic Acid]	237 µM (≈ 94.3 µg/mL)	810 nM and 840 nM and 1120 nM	6.05 and 6.045	901 nM	900 nM	890 nM and 870 nM	–	–	–
CNC(=O)[C@H](C)Nc1cc(=O)[nH]c2ccc(Nc3ccnc(Cl)c3C#N)cc12 [Compound 12c, (S)-2-((6-((2-Chloro-3-cyanopyridin-4-yl)amino)-2-oxo-1,2-dihydroquinolin-4-yl)amino)-N-methylpropanamide]	64 µM (≈ 25.4 µg/mL)	3390 nM and 2070 nM and 2270 nM and 3400 nM and 3900 nM and 2940 nM and 1540 nM	5.57 and 5.574	2670 nM	2670 nM	–	–	–	–
CCCNc1cc(=O)n(C)c2ccc(Nc3cc(C(=O)O)nc(Cl)c3C#N)cc12 [Compound 11b, 6-Chloro-5-cyano-4-((1-methyl-2-oxo-4-(propylamino)-1,2-dihydroquinolin-6-yl)amino)picolinic Acid]	40 µM (≈ 16.5 µg/mL)	1330 nM and 1810 nM	5.82 and 5.822	1510 nM	1510 nM	1440 nM and 1490 nM	–	–	–
CNC(=O)[C@@H](C)Nc1cc(=O)[nH]c2ccc(Nc3ccnc(Cl)c3C#N)cc12 [Compound 12b, (R)-2-((6-((2-Chloro-3-cyanopyridin-4-yl)amino)-2-oxo-1,2-dihydroquinolin-4-yl)amino)-N-methylpropanamide]	64 µM (≈ 25.4 µg/mL)	300 nM (2×) and 220 nM and 280 nM and 190 nM	6.60 and 6.596	253 nM	250 nM	240 nM and 260 nM	no measurable passive permeability	–	< 0.2 ×10⁻⁶ cm/s
CNC(=O)C(C)Nc1cc(=O)n(C)c2ccc(Nc3ccnc(Cl)c3C#N)cc12 (centres unmarked) [Compound 13a, 2-((6-((2-Chloro-3-cyanopyridin-4-yl)amino)-1-methyl-2-oxo-1,2-dihydroquinolin-4-yl)amino)-N-methylpropanamide]	184 µM (≈ 75.6 µg/mL)	–	–	–	–	–	<0.2 x10^-6 cms^-1	–	–
Cn1c(=O)cc(NCCF)c2cc(Nc3cc(C(=O)O)nc(Cl)c3C#N)ccc21 [Compound 11c, 6-Chloro-5-cyano-4-((4-((2-fluoroethyl)amino)-1-methyl-2-oxo-1,2-dihydroquinolin-6-yl)amino)picolinic Acid]	82 µM (≈ 34.1 µg/mL)	–	6.06 and 6.057	880 nM and 878 nM	880 nM	870 nM and 890 nM and 880 nM	–	–	–
CC(Nc1cc(=O)n(C)c2ccc(Nc3ccnc(Cl)c3C#N)cc12)c1ncn(C)n1 (centres unmarked) [Compound 13d, 2-Chloro-4-((1-methyl-4-((1-(1-methyl-1H-1,2,4-triazol-3-yl)ethyl)amino)-2-oxo-1,2-dihydroquinolin-6-yl)amino)nicotinonitrile]	258 µM (≈ 112 µg/mL)	–	–	–	–	–	–	–	–
CNC(=O)C(Nc1cc(=O)[nH]c2ccc(Nc3ccnc(Cl)c3C#N)cc12)C1CC1 (centres unmarked) [Compound 12d, 2-((6-((2-Chloro-3-cyanopyridin-4-yl)amino)-2-oxo-1,2-dihydroquinolin-4-yl)amino)-2-cyclopropyl-N-methylacetamide]	52 µM (≈ 22 µg/mL)	1180 nM and 970 nM	5.97 and 5.967	1080 nM	1080 nM	1100 nM	–	–	–
